≈ marks a conversion by molar mass, not a printed value. A value given as a limit tells only on which side of the number the result lay.

The MIC is the lowest concentration that inhibits growth of the organism. Higher therefore signals weaker potency.

Experiment [1] deals with Candida tropicalis ATCC 750. In words: MIC, NCCLS M27A broth dilution. The experiment is classed as cell-based. Particulars: RPMI 1640, MOPS pH 7. (In broth dilution the organism is exposed to a series of concentrations in liquid medium.)
In experiment [2] the test system is Aspergillus fumigatus Si-I. Nature of the experiment: MIC, NCCLS M38P broth dilution. Particulars: RPMI 1640, MOPS pH 7. In kind it is cell-based.
The test system of experiment [3] is Cryptococcus neoformans M 106. In words: MIC, NCCLS M27A broth dilution. In kind it is cell-based. The settings on record: RPMI 1640, MOPS pH 7.
Experiment [4] deals with Candida brusei ATCC 6258 (QC). In words: MIC, NCCLS M27A broth dilution. In kind it is cell-based. The settings on record: RPMI 1640, MOPS pH 7.
The subject of another experiment is Candida krusel 766.1. In words: MIC, NCCLS M27A broth dilution. The settings on record: RPMI 1640, MOPS pH 7. In kind it is cell-based.
Another experiment relates to Histoplasma capsulatum. The experiment is classed as cell-based. Particulars: RPMI 1640, MOPS pH 7.
In experiment [5] the test system is Candida parapsilosis ATCC 22019 (QC). Nature of the experiment: MIC, NCCLS M27A broth dilution. In kind it is cell-based. The settings on record: RPMI 1640, MOPS pH 7.
For experiment [6], the system named is Aspergillus fumigatus 1008. In words: MIC, NCCLS M38P broth dilution. In kind it is cell-based. The settings on record: RPMI 1640, MOPS pH 7.
A further experiment has as its system Candida glabrata 90030. Nature of the experiment: MIC, NCCLS M27A broth dilution. The experiment is classed as cell-based. The settings on record: RPMI 1640, MOPS pH 7.
Another experiment relates to Candida albicans Y-01-19. Nature of the experiment: MIC, NCCLS M27A broth dilution. The experiment is classed as cell-based. The settings on record: RPMI 1640, MOPS pH 7.
The test system of experiment [7] is Cryptococcus neoformans I. In words: MIC, NCCLS M27A broth dilution. In kind it is cell-based. The settings on record: RPMI 1640, MOPS pH 7.
Experiment [8] deals with Paecilomyces variotti ATCC 22319 (QC). Nature of the experiment: MIC, NCCLS broth dilution. The experiment is classed as cell-based. Particulars: RPMI 1640, MOPS pH 7.
Experiment [9] has as its system Candida albicans ATCC 36082. Nature of the experiment: MIC, NCCLS M27A broth dilution. The experiment is classed as cell-based. Particulars: RPMI 1640, MOPS pH 7.
Another experiment has as its system Candida albicans 1162. In words: MIC, NCCLS M27A broth dilution. In kind it is cell-based. The settings on record: RPMI 1640, MOPS pH 7.
For a further experiment, the system named is Candida albicans 1122. Nature of the experiment: MIC, NCCLS M27A broth dilution. The experiment is classed as cell-based. The settings on record: RPMI 1640, MOPS pH 7.
For experiment [10], the target named is T1, ergosterol P450DM (Candida albicans, UniProt P10613).
T1 construct: host or cells: C. albicans lysates
T1 sequence (P10613 whole entry): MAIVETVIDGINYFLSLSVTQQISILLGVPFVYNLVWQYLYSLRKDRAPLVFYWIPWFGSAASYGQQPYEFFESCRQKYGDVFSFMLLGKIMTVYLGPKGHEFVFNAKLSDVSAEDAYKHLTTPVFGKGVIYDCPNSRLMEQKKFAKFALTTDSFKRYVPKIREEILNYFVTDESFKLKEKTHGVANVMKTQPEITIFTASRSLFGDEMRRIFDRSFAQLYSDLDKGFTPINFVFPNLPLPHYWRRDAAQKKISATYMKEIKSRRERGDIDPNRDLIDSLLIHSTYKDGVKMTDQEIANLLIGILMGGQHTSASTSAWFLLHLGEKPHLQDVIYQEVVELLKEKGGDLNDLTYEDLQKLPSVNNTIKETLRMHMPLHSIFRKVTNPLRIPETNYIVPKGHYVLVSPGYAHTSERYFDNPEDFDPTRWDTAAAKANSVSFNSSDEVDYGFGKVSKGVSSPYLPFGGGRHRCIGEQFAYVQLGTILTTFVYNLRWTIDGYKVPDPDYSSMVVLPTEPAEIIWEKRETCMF
The settings on record: C. albicans lysates; relative to fluconazole; cited from earlier work.

Experiment [11] deals with ergosterol P450DM. The settings on record: A. fumigatus lysates; relative to fluconazole; cited from earlier work.

In the case of “2-[(5R,3S)-5-(2,4-Difluorophenyl)-tetrahydro-5-(1H-1,2,4-triazol-1yl-methyl)-furan-3-yl-methyl]-4-[4-(phenyl)-1,2,4-triazol-1-yl]-2,4-dihydro-3(2H,4H)-1,2,4-triazolone [Compound No. 2]”, the MIC in experiment [1] was determined as 0.5 µg/mL; in [2], 16 µg/mL; in experiment [3], 8 µg/mL; in [4], 8 µg/mL; against Candida krusel 766.1, 16 µg/mL; in the experiment with Histoplasma capsulatum, 16 µg/mL. The MIC in experiment [5] stood at 8 µg/mL; in [6] it was 16 µg/mL; against Candida glabrata 90030, 16 µg/mL; against Candida albicans Y-01-19 it was 16 µg/mL; in experiment [7], 8 µg/mL; in [8] it was 8 µg/mL. In addition, in experiment [9], the MIC was determined as 0.125 µg/mL.
For the compound “2-[(5R,3S)-5-(2,4-Difluorophenyl)-tetrahydro-5-(1H-1,2,4-triazol-1yl-methyl)-furan-3-yl-methyl]-4-{4-[4-(phenyl)-1-piperazinyl]-chlorophenyl}-2,4-dihydro-3(2H,4H-1,2,4-triazolone [Compound No. 5]”, the MIC in [1] was determined as 0.03 µg/mL; in experiment [2], 1 µg/mL; in experiment [3], 0.125 µg/mL; in [4] it was 0.25 µg/mL; against Candida krusel 766.1 it was 1 µg/mL; against Histoplasma capsulatum, 0.25 µg/mL. The MIC in experiment [5] is 0.03 µg/mL; in [6], 2 µg/mL; against Candida glabrata 90030, 1 µg/mL; in the experiment on Candida albicans Y-01-19, 0.125 µg/mL; in [7] it was less than 0.03 µg/mL; in [8] it was 1 µg/mL. The compound also displayed an MIC in [9] of 0.03 µg/mL.
Consider `O=c1n(-c2ccc(O)cc2)cnn1C[C@H]1CO[C@@](Cn2cncn2)(c2ccc(F)cc2F)C1` [Compound No. 3], for which the minimal inhibitory concentration (MIC) in experiment [1] was 16 µg/mL (≈ 35.2 µM); in [2], more than 16 µg/mL; in experiment [3] it was 8 µg/mL (≈ 17.6 µM); in experiment [4], 16 µg/mL (≈ 35.2 µM); against Candida krusel 766.1, 16 µg/mL (≈ 35.2 µM); against Histoplasma capsulatum it was 16 µg/mL (≈ 35.2 µM). For the same compound, the MIC in experiment [5] was 16 µg/mL (≈ 35.2 µM); in experiment [6] it was more than 16 µg/mL; with Candida glabrata 90030, 16 µg/mL (≈ 35.2 µM); against Candida albicans Y-01-19, 8 µg/mL (≈ 17.6 µM); in experiment [7] it was 8 µg/mL (≈ 17.6 µM); in experiment [8], more than 16 µg/mL. Besides, the MIC in experiment [9] amounted to 16 µg/mL (≈ 35.2 µM).
With `O=c1n(-c2ccc(Cn3cncn3)cc2)cnn1C[C@@H]1CO[C@@](Cn2cncn2)(c2ccc(F)cc2F)C1` [Compound No. 4], the MIC in [1] was found to be 16 µg/mL (≈ 30.8 µM); in [2], 16 µg/mL (≈ 30.8 µM); in [3] it was 8 µg/mL (≈ 15.4 µM); in [4], 16 µg/mL (≈ 30.8 µM); in the experiment on Candida krusel 766.1, 16 µg/mL (≈ 30.8 µM); in the experiment with Histoplasma capsulatum, 16 µg/mL (≈ 30.8 µM). Further, the minimal inhibitory concentration (MIC) in experiment [5] stood at 8 µg/mL (≈ 15.4 µM); in experiment [6] it was 16 µg/mL (≈ 30.8 µM); against Candida glabrata 90030, 16 µg/mL (≈ 30.8 µM); in the experiment with Candida albicans Y-01-19, 16 µg/mL (≈ 30.8 µM); in [7], 8 µg/mL (≈ 15.4 µM); in [8] it was 16 µg/mL (≈ 30.8 µM). The compound also displayed an MIC in experiment [9] of 2 µg/mL (≈ 3.85 µM).
On to `O=c1n(-c2ccc(OCc3ccccc3)cc2)cnn1C[C@H]1CO[C@@](Cn2cncn2)(c2ccc(F)cc2F)C1` [Compound No. 6, 2-[(5R,3S)-5-(2,4-Difluorophenyl)-tetrahydro-5-(1H-1,2,4-triazol-1yl-methyl)-furan-3-yl-methyl]-4-[4-(benzyloxy)-phenyl]-2,4-dihydro-3(2H,4H)-1,2,4-triazolone], for which the MIC was found to be 0.06 µg/mL (≈ 0.11 µM) in experiment [1]; 16 µg/mL (≈ 29.4 µM) in experiment [2]; 2 µg/mL (≈ 3.67 µM) in experiment [3]; 4 µg/mL (≈ 7.35 µM) in experiment [4]; 8 µg/mL (≈ 14.7 µM) in the experiment on Candida krusel 766.1; 0.5 µg/mL (≈ 0.918 µM) in the experiment with Histoplasma capsulatum. For the same compound, the MIC was determined as 0.25 µg/mL (≈ 0.459 µM) in experiment [5]; 16 µg/mL (≈ 29.4 µM) in experiment [6]; 2 µg/mL (≈ 3.67 µM) against Candida glabrata 90030; 1 µg/mL (≈ 1.84 µM) in the experiment with Candida albicans Y-01-19; 2 µg/mL (≈ 3.67 µM) in [7]; 16 µg/mL (≈ 29.4 µM) in [8]. For the same compound, in [9], inhibition of growth (MIC) required 0.03 µg/mL (≈ 0.0551 µM).
On to `O=c1n(-c2ccc(N3CCN(c4ccc(OCc5ccccc5)cc4)CC3)cc2)cnn1C[C@H]1CO[C@@](Cn2cncn2)(c2ccc(F)cc2F)C1` [Compound No. 7, 2-[(5R,3S)-5-(2,4-Difluorophenyl)-tetrahydro-5-(1H-1,2,4-triazol-1yl-methyl)-furan-3-yl-methyl]-4-{4-[4-[4-(benzyloxy)-phenyl]-1-piperazinyl]-phenyl}-2,4-dihydro-3(2H,4H)-1,2,4-triazolone], for which the MIC in experiment [1] is 0.125 µg/mL (≈ 0.177 µM); in experiment [2], 16 µg/mL (≈ 22.7 µM); in experiment [3], 0.125 µg/mL (≈ 0.177 µM); in experiment [4] it was 8 µg/mL (≈ 11.4 µM); with Candida krusel 766.1, 16 µg/mL (≈ 22.7 µM); in the experiment with Histoplasma capsulatum, 16 µg/mL (≈ 22.7 µM). In addition, the MIC was 0.125 µg/mL (≈ 0.177 µM) in experiment [5]; 16 µg/mL (≈ 22.7 µM) in [6]; 16 µg/mL (≈ 22.7 µM) in the experiment with Candida glabrata 90030; 16 µg/mL (≈ 22.7 µM) in the experiment on Candida albicans Y-01-19; 0.06 µg/mL (≈ 0.0851 µM) in [7]; 1 µg/mL (≈ 1.42 µM) in experiment [8]. The compound further gave an MIC in [9] of less than 0.03 µg/mL.
As for `O=c1n(-c2ccc(-n3cnnn3)cc2)cnn1C[C@@H]1CO[C@@](Cn2cncn2)(c2ccc(F)cc2F)C1` [Compound No. 9, 2-[(5R,3R)-5-(2,4-Difluorophenyl)-tetrahydro-5-(1H-1,2,4-triazol-1yl-methyl)-furan-3-yl-methyl]-4-[4-(1,2,3,4-tetrazol-1-yl)-phenyl]-2,4-dihydro-3(2H,4H)-1,2,4-triazolone], the MIC in experiment [1] was 8 µg/mL (≈ 15.8 µM); in experiment [2] it was “≧128 g/ml”; in [3] it was 8 µg/mL (≈ 15.8 µM); against Candida albicans 1162 it was 64 µg/mL (≈ 126 µM); in [4], 64 µg/mL (≈ 126 µM); in the experiment with Candida krusel 766.1, 64 µg/mL (≈ 126 µM). Further, the MIC against Histoplasma capsulatum was 64 µg/mL (≈ 126 µM); in [5], 16 µg/mL (≈ 31.6 µM); in experiment [6] it was more than 128 µg/mL; in the experiment on Candida glabrata 90030 it was 64 µg/mL (≈ 126 µM); in the experiment with Candida albicans Y-01-19, 64 µg/mL (≈ 126 µM); in experiment [7], 32 µg/mL (≈ 63.2 µM). The MIC came out at 4 µg/mL (≈ 7.9 µM) in the experiment on Candida albicans 1122 and 32 µg/mL (≈ 63.2 µM) in [8].
For `C[C@@H](c1ncncc1F)[C@](O)(Cn1cncn1)c1ccc(F)cc1F` [Voriconazole], the “greater inhibition of ergosterol P450DM compared to fluconazole” value at ergosterol P450DM [10] was 1.6 fold; in the experiment on ergosterol P450DM [11] it was 160 fold.

(Values after patent publication US20050261330A1, “Derivatives of 2,2,4-trisubstituted tetrahydrofuran an antifungal agents” (priority 2002, published 2005).)
